Here are results for 18 compounds from US9783532B2, “Molecules having certain pesticidal utilities, and intermediates, compositions, and processes related thereto” (Dow AgroSciences LLC, priority 2013, dated 2017).

What all share (type): in vivo
Data set [1] has as its system Beet Armyworm (Spodoptera exigua) ("BAW"). Nature of the data set: Bioassay on beet armyworm (BAW), 128-well diet tray assay. The note with it: for mortality at 50 µg/cm2: 168 h, 50 μg/cm^2 on artificial diet, second instar BAW larvae, 25° C., five to seven days, average of eight wells, read-out: BAW % Control (or Mortality) rating. In short, it runs like this: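 Percent mortality, averaged across eight wells, was read after five to seven days at 25° C. under 14:10 light-dark. Each well held one to five second-instar larvae on artificial diet that had been treated with 50 μg/cm^2 compound in 90:10 acetone-water and dried.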

Data set [2] deals with Cabbage Looper (Trichoplusia ni) ("CL"). The data set is described as follows: Bioassay on cabbage looper (CL), 128-well diet tray assay. Conditions: for mortality at 50 µg/cm2: 168 h, 50 μg/cm^2 on artificial diet, second instar CL larvae, 25° C., five to seven days, average of eight wells, read-out: CL % Control (or Mortality) rating. In short, it runs like this: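 Percent mortality, averaged across eight replicate wells, was read after five to seven days at 25 °C under a 14:10 photoperiod. Each well held one to five second-instar T. ni on diet carrying a dried 50 μg/cm^2 dose applied in acetone-water 90:10.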

Data set [3] relates to Green Peach Aphid ("GPA") (Myzus persicae). Nature of the data set: Bioassay on green peach aphid (GPA), foliar spray on cabbage seedlings. The note with it: Myzus persicae, foliar, 72 h; 200 ppm spray on infested cabbage seedlings, three days, Abbott corrected % control; read-out: GPA % Control (or Mortality) rating. As to the method: Certain molecules disclosed in this document were tested against GPA using procedures described in the following example. In the reporting of the results, the “GPA Rating Table” was used (See Table Section).
Cabbage seedlings grown in 3-inch pots, with 2-3 small (3-5 cm) true leaves, were used as test substrate. The seedlings were infested with 20-50 GPA (wingless adult and nymph stages) one day prior to chemical application. Four pots with individual seedlings were used for each treatment. Test compounds (2 mg) were dissolved in 2 mL of acetone/methanol (1:1) solvent, forming stock solutions of 1000 ppm test compound. The stock solutions were diluted 5× with 0.025% Tween 20 in water to obtain the solution at 200 ppm test compound. A hand-held aspirator-type sprayer was used for spraying a solution to both sides of […] leaves until runoff. Reference plants (solvent check) were sprayed with the diluent only containing 20% by volume of acetone/methanol (1:1) solvent. Treated plants were held in a holding room for three days at approximately 25° C. and ambient relative humidity (RH) prior to grading. Evaluation was conducted by counting the number of live aphids per plant under a microscope. Percent Control was measured by using Abbott's correction formula (W. S. Abbott, “A Method of Computing the Effectiveness of an Insecticide” J. Econ. Entomol. 18 (1925), pp. 265-267) as follows. Corrected % Control=100*(X−Y)/X • where • X=No. of live aphids on solvent check plants and • Y=No. of live aphids on treated plants

Data set [4] concerns Yellow Fever Mosquito "YFM" (Aedes aegypti). In short, it runs like this:
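About 1 day-old Aedes aegypti larvae in liver-powder water added to wells holding compound diluted from 4000 ppm DMSO stock with 90:10 water:acetone, 6 replicate plates. Plates kept covered at room temperature for 3 days. Wells scored for mortality and reported as rating categories.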

As usually defined, the mortality is the share of the test organisms that died.

As to `CC(C)c1ccccc1N1C(=O)CS/C1=N\C(=O)N/C=C/c1ccc(-c2ncn(-c3ccc(OC(F)(F)F)cc3)n2)cc1` [F12], the mortality at 50 µg/cm2 in data set [1] and in data set [2] was 50 to 100% in each case. Besides, the mortality at 200 ppm in data set [3] turned out to be 0%.

Turning to `CC(C)c1ccccc1N1C(=O)CS/C1=N\C(=O)NCCc1ccc(-c2ncn(-c3ccc(OC(F)(F)F)cc3)n2)cc1` [F1, (Z)-1-(3-(2-isopropylphenyl)-4-oxothiazolidin-2-ylidene)-3-(4-(1-(4-(trifluoromethoxy)phenyl)-1H-1,2,4-triazol-3-yl)phenethyl)urea], the mortality at 50 µg/cm2 in data set [1] and in data set [2] was 50 to 100% throughout. Besides, the mortality at 200 ppm in data set [3] is 0%.

Turning to `CCc1ccc(C)cc1N1C(=O)CS/C1=N\C(=O)NC1CC1c1ccc(-c2ncn(-c3ccc(OC(F)(F)F)cc3)n2)cc1` (stereo not drawn) [F33, (Z)-1-(3-(2-ethyl-5-methylphenyl)-4-oxothiazolidin-2-ylidene)-3-(2-(4-(1-(4-(trifluoromethoxy)phenyl)-1H-1,2,4-triazol-3-yl)phenyl)cyclopropyl)urea], the mortality at 50 µg/cm2 in data set [1] and in data set [2] was 50 to 100% throughout. In data set [3], the mortality at 200 ppm came to 0%.

For the compound `Cc1ccc(C(C)C)c(NC(=S)NC(=O)NCCc2ccc(-c3ncn(-c4ccc(OC(F)(F)F)cc4)n3)cc2)c1` [F3, N-[5-methyl-2-isopropylphenyl]-N′-[2-(4-{1-[4-(trifluoromethoxy)-phenyl]-1H-1,2,4-triazol-3-yl}phenyl)ethyl]dicarbonimidothioic diamide], the mortality at 50 µg/cm2 in data set [1] and in data set [2] was 50 to 100% each time. The mortality at 200 ppm in data set [3] was 0 to 80%.

Consider `CC(C)c1ccccc1NC(=S)NC(=O)NC1CC1c1ccc(-c2ncn(-c3ccc(OC(F)(F)F)cc3)n2)cc1` (stereo not drawn) [F22], for which the mortality at 50 µg/cm2 in data set [1] and in data set [2] was 50 to 100% throughout. Moreover, in data set [3], the mortality at 200 ppm worked out at 0%.

Consider `CCc1ccc(C)cc1NC(=S)NC(=O)NC1CC1c1ccc(-c2ncn(-c3ccc(OC(F)(F)F)cc3)n2)cc1` (stereo not drawn) [F27, N-(2-ethyl-5-methylphenyl)-N′-[2-(4-{1-[4-(trifluoromethoxy)phenyl]-1H-1,2,4-triazol-3-yl}phenyl)cyclopropyl]dicarbonimidothioic diamide], for which the mortality at 50 µg/cm2 in data set [1] and in data set [2] was 50 to 100% in each case. In data set [3], the mortality at 200 ppm was determined as 0%.

Regarding `Cc1ccc(C(C)C)c(N2CCS/C2=N\C(=O)NC2CC2c2ccc(-c3ncn(-c4ccc(OC(F)(F)F)cc4)n3)cc2)c1` (stereo not drawn) [F34, (Z)-1-(3-(2-isopropyl-5-methylphenyl)thiazolidin-2-ylidene)-3-(2-(4-(1-(4-(trifluoromethoxy)-phenyl)-1H-1,2,4-triazol-3-yl)phenyl)cyclopropyl)urea], the mortality at 50 µg/cm2 in data set [1] and in data set [2] was 50 to 100% each time. Further, in data set [3], the mortality at 200 ppm stood at 0%.

Regarding `Cc1ccc(C(C)C)c(NC(=S)NC(=O)NC2CC2c2ccc(-c3ncn(-c4ccc(OC(F)(F)F)cc4)n3)cc2)c1` (stereo not drawn) [F28, N-[5-methyl-2-(propan-2-yl)phenyl]-N-[2-(4-{1-[4-(trifluoromethoxy)phenyl]-1H-1,2,4-triazol-3-yl}phenyl)cyclopropyl]dicarbonimidothioic diamide], the mortality at 50 µg/cm2 in data set [1] and in data set [2] was 50 to 100% throughout. For the same compound, the mortality at 200 ppm in data set [3] was 0%.

On to `CCCc1ccccc1NC(=S)NC(=O)NC1CC1c1ccc(-c2ncn(-c3ccc(OC(F)(F)F)cc3)n2)cc1` (stereo not drawn) [F23], for which the mortality at 50 µg/cm2 in data set [1] and in data set [2] was 50 to 100% throughout. For the same compound, in data set [3], the mortality at 200 ppm was found to be 0%.

Regarding `CCCc1ccccc1N1C(=O)CS/C1=N\C(=O)NC1CC1c1ccc(-c2ncn(-c3ccc(OC(F)(F)F)cc3)n2)cc1` (stereo not drawn) [F30, (Z)-1-(4-oxo-3-(2-propylphenyl)thiazolidin-2-ylidene)-3-(2-(4-(1-(4-(trifluoromethoxy)phenyl)-1H-1,2,4-triazol-3-yl)phenyl)cyclopropyl)urea], the mortality at 50 µg/cm2 in data set [1] and in data set [2] was 50 to 100% in each case. Further, the mortality at 200 ppm in data set [3] turned out to be 0%.

Consider `Cc1cccc(C)c1NC(=S)NC(=O)NC1CC1c1ccc(-c2ncn(-c3ccc(OC(F)(F)F)cc3)n2)cc1` (stereo not drawn) [F25], for which the mortality at 50 µg/cm2 in data set [1] and in data set [2] was 50 to 100% throughout. In data set [3], the mortality at 200 ppm was 0%.

Take `C/C(=C\NC(=O)/N=C1\SCC(=O)N1c1ccccc1C(C)C)c1ccc(-c2ncn(-c3ccc(OC(F)(F)F)cc3)n2)cc1` [F13, (Z)-1-(3-(2-isopropylphenyl)-4-oxothiazolidin-2-ylidene)-3-((E)-2-(4-(1-(4-(trifluoromethoxy)phenyl)-1H-1,2,4-triazol-3-yl)phenyl)prop-1-en-1-yl)urea]: the mortality at 50 µg/cm2 in data set [1] and in data set [2] was 50 to 100% each time. Moreover, the mortality at 200 ppm in data set [3] was 0%.

With `CCc1cccc(C)c1NC(=S)NC(=O)NC1CC1c1ccc(-c2ncn(-c3ccc(OC(F)(F)F)cc3)n2)cc1` (stereo not drawn) [F24, N-(2-ethyl-6-methylphenyl)-N′-[2-(4-(1-[4-(trifluoromethoxy)phenyl]-1H-1,2,4-triazol-3-yl)phenyl)cyclopropyl]dicarbonimidothioic diamide], the mortality at 50 µg/cm2 in data set [1] and in data set [2] was 50 to 100% in each case. The mortality at 200 ppm in data set [3] stood at 0%.

Take `CCc1cccc(C)c1N1C(=O)CS/C1=N\C(=O)NC1CC1c1ccc(-c2ncn(-c3ccc(OC(F)(F)F)cc3)n2)cc1` (stereo not drawn) [F31, (Z)-1-(3-(2-ethyl-6-methylphenyl)-4-oxothiazolidin-2-ylidene)-3-(2-(4-(1-(4-(trifluoromethoxy)phenyl)-1H-1,2,4-triazol-3-yl)phenyl)cyclopropyl)urea]: the mortality at 50 µg/cm2 in data set [1] and in data set [2] was 50 to 100% in each case. Further, in data set [3], the mortality at 200 ppm amounted to 0%.

Take `Cc1cccc(C)c1N1C(=O)CS/C1=N\C(=O)NC1CC1c1ccc(-c2ncn(-c3ccc(OC(F)(F)F)cc3)n2)cc1` (stereo not drawn) [F32, (Z)-1-(3-(2,6-dimethylphenyl)-4-oxothiazolidin-2-ylidene)-3-(2-(4-(1-(4-(trifluoromethoxy)phenyl)-1H-1,2,4-triazol-3-yl)phenyl)cyclopropyl)urea]: the mortality at 50 µg/cm2 in data set [1] and in data set [2] was 50 to 100% throughout. Further, the mortality at 200 ppm in data set [3] came to 0%.

Consider `CC(C)c1ccccc1NC(=S)NC(=O)N/C=C/c1ccc(-c2ncn(-c3ccc(OC(F)(F)F)cc3)n2)cc1` [F11], for which the mortality at 50 µg/cm2 in data set [1] and in data set [2] was 50 to 100% in each case. Moreover, in data set [3], the mortality at 200 ppm is 0%.

Turning to `CC(C)c1cc(F)ccc1N1/C(=N/C(=O)NCCc2ccc(-c3ncn(-c4ccc(OC(F)(F)F)cc4)n3)cc2)SCC1C` (stereo not drawn) [FB57], the pest or weed control at 50 µg/cm2 in data set [1] (Table ABC (FB), activity rating class, read-out: BAW (Biological Results, Insect species)) was 50 to 100%; in data set [2] (Table ABC (FB), activity rating class, read-out: CL (Biological Results, Insect species)), 50 to 100%. In data set [4] (Table ABC (FB), activity rating class), the “YFM (Biological Results, Insect species)” value is “A (80-100)”.

Take `COc1ccc(C(C)C)c(N2C(=O)CS/C2=N\C(=O)NCC(C)c2ccc(-c3ncn(-c4ccc(OC(F)(F)F)cc4)n3)cc2)c1` (stereo not drawn) [P679, (Z)-1-(3-(2-isopropyl-5-methoxyphenyl)-4-oxothiazolidin-2-ylidene)-3-(2-(4-(1-(4-(trifluoromethoxy)phenyl)-1H-1,2,4-triazol-3-yl)phenyl)propyl)urea]: the mortality at 50 µg/cm2 in data set [1] and in data set [2] was 50 to 100% in each case. In addition, the “YFM % Control (or Mortality) rating” value in data set [4] (about 1 day-old larvae, 96-well plate, room temperature, 3 days, mortality) is listed as “A (80-100)”.
